Our source for the EC50 and fold change (FC) values is ChEMBL document CHEMBL1156402, “Two new furanoditerpenes from Saururus chinenesis and their effects on the activation of peroxisome proliferator-activated receptor gamma” (J Nat Prod, 2002).

Assay [1] concerns the target T1, Peroxisome proliferator-activated receptor gamma (Homo sapiens, UniProt P37231).
T1 sequence (P37231 whole entry): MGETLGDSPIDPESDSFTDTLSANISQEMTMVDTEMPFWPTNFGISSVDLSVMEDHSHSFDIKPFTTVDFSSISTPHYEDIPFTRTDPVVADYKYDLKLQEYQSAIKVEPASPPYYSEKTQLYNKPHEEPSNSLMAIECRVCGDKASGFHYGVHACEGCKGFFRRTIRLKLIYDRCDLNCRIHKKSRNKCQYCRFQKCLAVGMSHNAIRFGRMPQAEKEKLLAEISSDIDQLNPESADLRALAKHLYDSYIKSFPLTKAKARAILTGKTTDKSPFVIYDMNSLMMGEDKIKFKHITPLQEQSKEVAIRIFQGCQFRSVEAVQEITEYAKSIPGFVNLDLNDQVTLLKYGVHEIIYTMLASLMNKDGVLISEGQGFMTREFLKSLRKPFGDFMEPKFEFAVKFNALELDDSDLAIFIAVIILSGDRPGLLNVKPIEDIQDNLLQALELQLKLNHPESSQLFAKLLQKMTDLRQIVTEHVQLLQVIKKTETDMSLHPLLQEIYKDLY
As to the kind of experiment: Agonist activity at human PPARgamma expressed in mouse NIH/3T3 cells assessed as receptor activation after 16 hrs by luciferase based reporter gene assay. The class given is functional, cell-based, NIH3T3. (Reporter assays use an easily measured gene product as a stand-in for the process of interest.)

Assay [2] deals with T2, Peroxisome proliferator-activated receptor gamma (Homo sapiens) (UniProt P37231).
T2 sequence (whole entry): T1 sequence (P37231 whole entry)
As to the kind of experiment: Agonist activity at human PPARgamma expressed in mouse NIH/3T3 cells assessed as receptor activation at 100 uM after 16 hrs by luciferase based reporter gene assay relative to control. The class given is functional, cell-based. The conditions noted are these: NIH3T3.

Molecules are shown by their SMILES.

What is called EC50 is the concentration giving half of the maximal effect. As for `C/C(=C/CC/C(C)=C/CC/C(C)=C/Cc1occc1C)C(=O)O` [SAURUFURAN A], the EC50 in assay [1] was found to be 16.7 µM. The fold change (FC) in assay [2] stood at 13.5.

Consider `C/C(=C\CC/C(C)=C/Cc1occc1C)CC/C=C(\C)C(=O)O` [SAURUFURAN B], for which the EC50 in assay [1] was greater than 100 µM.

Take `CC1(COc2ccc(CC3SC(=O)NC3=O)cc2)CCCCC1` (centres undefined): the fold change (FC) in assay [2] turned out to be 15.
